The assay deals with phosphorylated Btk at Tyr223 in Ramos cells (Homo sapiens (Human), UniProt Q06187). Description: Btk pY223 cellular assay (HTRF) in Ramos cells. It is filed as cell-based. Particulars: 1 hour compound incubation, pervanadate or Na3VO4 stimulation.

Where a name gives a salt, the structure may show the parent alone.

phosphorylated Btk at Tyr223 in Ramos cells, sequence (Q06187 whole entry): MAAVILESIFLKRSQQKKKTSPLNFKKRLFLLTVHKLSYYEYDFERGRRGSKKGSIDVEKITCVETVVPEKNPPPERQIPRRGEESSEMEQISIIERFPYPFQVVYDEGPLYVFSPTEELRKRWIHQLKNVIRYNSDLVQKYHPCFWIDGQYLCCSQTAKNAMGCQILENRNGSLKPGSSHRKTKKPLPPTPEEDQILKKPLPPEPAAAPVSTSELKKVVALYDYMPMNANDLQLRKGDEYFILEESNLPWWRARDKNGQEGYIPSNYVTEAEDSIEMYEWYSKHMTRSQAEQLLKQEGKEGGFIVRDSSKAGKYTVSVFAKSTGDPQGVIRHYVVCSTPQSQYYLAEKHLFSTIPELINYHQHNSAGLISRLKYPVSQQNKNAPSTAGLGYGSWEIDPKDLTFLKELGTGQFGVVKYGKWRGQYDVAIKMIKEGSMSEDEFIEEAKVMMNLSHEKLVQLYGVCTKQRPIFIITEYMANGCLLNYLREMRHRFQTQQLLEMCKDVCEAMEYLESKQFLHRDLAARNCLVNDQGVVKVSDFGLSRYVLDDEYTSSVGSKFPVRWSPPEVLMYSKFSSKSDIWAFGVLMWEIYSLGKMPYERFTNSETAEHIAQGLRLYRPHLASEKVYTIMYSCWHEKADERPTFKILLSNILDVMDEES
Method: Btk pY223 cellular assay is a HTRF based assay intended to determine the endogenous levels of phosphorylated Btk at Tyr223.
Briefly, Ramos cells were serum starved in 0.5% FBS-containing RPMI1640 for 2 hours. Following starvation, the cells were incubated with compounds to be detected at various concentrations in a CO2 incubator for 1 hour. After incubation, cells were stimulated with 1 mM pervanadate (PV) or Na3VO4 (OV) for 20 min. Then, the cells were spinned down and lysed with 1× lysis buffer at RT for 10 min (4× lysis buffer supplied in the kit). During the incubation, 1× antibody mix was prepared by diluting anti-Btk-d2 and anti-pBtk-K in detection buffer (supplied in the kit). […] After that, 18 ul of cell lysate was transferred to the assay plate pre-loaded with antibody solution. After mixing gently and spinning briefly, the plate was sealed up and kept in dark at RT for 18 hours. […] IC50 values were calculated with GraphPad Prism software using the sigmoidal dose-response function.

As for `C=CC(=O)Nc1ccccc1C1CCNc2c(C(N)=O)c(-c3ccc(Cl)c(Cl)c3)nn21` (stereo not shown) [Compound 156, 7-(2-Acrylamidophenyl)-2-(3,4-dichlorophenyl)-4,5,6,7-tetrahydropyrazolo-[1,5-a]pyrimidine-3-carboxamide], the IC50 came to 6.8 nM.

For the compound `C=CC(=O)Nc1ccccc1C1CCNc2c(C(N)=O)c(-c3ccc(F)c(F)c3)nn21` (stereo not shown) [Compound 137, 7-(2-acrylamidophenyl)-2-(3,4-difluorophenyl)-4,5,6,7-tetrahydropyrazolo[1,5-a]pyrimidine-3-carboxamide], the IC50 stood at 22.7 nM. Compared with the last compound, the IC50 is about 3.3-fold higher. Regarding `C=CC(=O)Nc1ccccc1C1CCNc2c(C(N)=O)c(-c3ccc(Cl)c(OC)c3)nn21` (stereo not shown) [Compound 160, 7-(2-Acrylamidophenyl)-2-(4-chloro-3-methoxyphenyl)-4,5,6,7-tetrahydropyrazolo[1,5-a]pyrimidine-3-carboxamide], half-maximal inhibition (IC50) was put at 1.3 nM. The figure for `C=CC(=O)NC1CNc2c(C(N)=O)c(-c3ccc(Oc4ccccc4)cc3)nn2C1` (stereo not shown) [Compound 85, 6-Acrylamido-2-(4-phenoxyphenyl)-4,5,6,7-tetrahydropyrazolo[1,5-a]pyrimidine-3-carboxamide] is 73.2 nM; for `C=CC(=O)Nc1ccccc1C1CCNc2c(C(N)=O)c(-c3cc(Cl)c(OC)c(Cl)c3)nn21` (stereo not shown) [Compound 169, 7-(2-Acrylamido-phenyl)-2-(3,5-dichloro-4-methoxyphenyl)-4,5,6,7-tetrahydropyrazolo-[1,5-a]pyrimidine-3-carboxamide] it is 7 nM; for `NC(=O)c1c(-c2ccc(F)c(Cl)c2)nn2c1NCCC2c1ccccc1NC(=O)/C=C/CN1CCCCC1` (stereo not shown) [Compound 153, (E)-2-(3-Chloro-4-fluorophenyl)-7-(2-(4-(piperidin-1-yl)but-2-enamido)phenyl)-4,5,6,7-tetrahydropyrazolo-[1,5-a]pyrimidine-3-carboxamide] it is 165 nM. `CN(C)C/C=C/C(=O)N1CCCc2[nH]c3c(C(N)=O)c(-c4ccc(Oc5ccccc5)cc4)nn3c2C1` [Compound 124, (E)-8-(4-(dimethylamino)but-2-enoyl)-2-(4-phenoxyphenyl)-4,5,6,7,8,9-hexahydropyrazolo-[5′,1′:2,3]-imidazo[4,5-c]azepine-3-carboxamide] displayed an IC50 of 4.6 nM. The figure for `C=CC(=O)NCC1CNc2c(C(N)=O)c(-c3ccc(Oc4ccccc4)cc3)nn2C1` (stereo not shown) [Compound 86, 6-(Acrylamidomethyl)-2-(4-phenoxyphenyl)-4,5,6,7-tetrahydro pyrazolo[1,5-a]pyrimidine-3-carboxamide] is 4.4 nM; for `C=CC(=O)N1CCC(C2(C)CCNc3c(C(N)=O)c(-c4ccc(Oc5ccccc5)cc4)nn32)CC1` (stereo not shown) [Compound 138, 7-(1-acryloylpiperidin-4-yl)-7-methyl-2-(4-phenoxyphenyl)-4,5,6,7-tetrahydropyrazolo[1,5-a]pyrimidine-3-carboxamide] it is 7.6 nM; for `C=CC(=O)Nc1ccccc1C1CCNc2c(C(N)=O)c(-c3ccc(F)c(Cl)c3)nn21` (stereo not shown) [Compound 196, 7-(2-Acrylamidophenyl)-2-(3-chloro-4-fluorophenyl)-4,5,6,7-tetrahydropyrazolo-[1,5-a]pyrimidine-3-carboxamide] it is 2 nM. To `CN(C)C/C=C/C(=O)N1CCc2[nH]c3c(C(N)=O)c(-c4ccc(Oc5ccccc5)cc4)nn3c2CC1` [Compound 122, (E)-7-(4-(dimethylamino)but-2-enoyl)-2-(4-phenoxyphenyl)-4,5,6,7,8,9-hexahydropyrazolo-[1′,5′:1,2]-imidazo[4,5-d]azepine-3-carboxamide] belongs 12.6 nM; to `C=CC(=O)N1CC(C2CCNc3c(C(N)=O)c(-c4ccc(Oc5cccc(Cl)c5)cc4)nn32)C1` (stereo not shown) [Compound 107, 7-(1-acryloylazetidin-3-yl)-2-(4-(3-chlorophenoxy)phenyl)-4,5,6,7-tetrahydropyrazolo[1,5-a]pyrimidine-3-carboxamide], 11.2 nM; to `CN(C)CCC(=O)N1CCc2[nH]c3c(C(N)=O)c(-c4ccc(Oc5ccccc5)cc4)nn3c2C1` [Compound 57, 7-(3-(Dimethylamino)propanoyl)-2-(4-phenoxyphenyl)-5,6,7,8-tetrahydro-4H-pyrazolo[5′,1′:2,3]imidazo[4,5-c]pyridine-3-carboxamide trifluoroacetate], 233 nM. To `C=CC(=O)N1CC(C2(C)CCNc3c(C(N)=O)c(-c4ccc(Oc5ccccc5)cc4)nn32)C1` (stereo not shown) [Compound 175, 7-(1-Acryloylazetidin-3-yl)-7-methyl-2-(4-phenoxyphenyl)-4,5,6,7-tetrahydropyrazolo-[1,5-a]pyrimidine-3-carboxamide] belongs 17.6 nM; to `CC=CC(=O)N1CCc2[nH]c3c(C(N)=O)c(-c4ccc(Oc5ccccc5)cc4)nn3c2C1` [Compound 58, 7-(But-2-enoyl)-2-(4-phenoxyphenyl)-5,6,7,8-tetrahydro-4H-pyrazolo[5′,1′:2,3]imidazo[4,5-c]pyridine-3-carboxamide], 4.6 nM. Turning to `NC(=O)c1c(-c2ccc(Oc3ccccc3)cc2)nn2c1NCCC2C1CCN(C(=O)/C=C/CN2CCCCC2)CC1` (stereo not shown) [Compound 170, (E)-2-(4-Phenoxyphenyl)-7-(1-(4-(piperidin-1-yl)but-2-enoyl)piperidin-4-yl)-4,5,6,7-tetrahydropyrazolo[1,5-a]pyrimidine-3-carboxamide], the midpoint of inhibition, the IC50, lay at 33.7 nM.

Compound `C=CC(=O)N1CCCC1C1CCNc2c(C(N)=O)c(-c3ccc(Oc4ccccc4)cc3)nn21` (stereo not shown) [Compound 103, 7-(1-acryloylpyrrolidin-2-yl)-2-(4-phenoxyphenyl)-4,5,6,7-tetrahydropyrazolo-[1,5-a]pyrimidine-3-carboxamide] had an IC50 of 14 nM.

In turn, `C=CC(=O)N1CC(C2CCNc3c(C(N)=O)c(-c4ccc(Oc5ccc(Cl)cc5)cc4)nn32)C1` (stereo not shown) [Compound 106, 7-(1-acryloylazetidin-3-yl)-2-(4-(4-chlorophenoxy)-phenyl)-4,5,6,7-tetrahydropyrazolo[1,5-a]pyrimidine-3-carboxamide] registered an IC50 of 30.3 nM.

In turn, `C=CC(=O)Nc1ccc2c(c1)-n1nc(-c3ccc(Oc4ccccc4)cc3)c(C(N)=O)c1NC2` [Compound 69, 8-Acrylamido-2-(4-phenoxyphenyl)-4,5-dihydropyrazolo[1,5-a]quinazoline-3-carboxamide] came in with an IC50 of 34.4 nM. To `C=CC(=O)Nc1ccccc1C1CCNc2c(C(N)=O)c(-c3ccc(F)c(C)c3)nn21` (stereo not shown) [Compound 157, 7-(2-Acrylamidophenyl)-2-(4-fluoro-3-methylphenyl)-4,5,6,7-tetrahydropyrazolo[1,5-a]pyrimidine-3-carboxamide] belongs 20 nM; to `CN(C)C/C=C/C(=O)Nc1ccccc1C1CCNc2c(C(N)=O)c(-c3ccc(Oc4ccccc4)cc3)nn21` (stereo not shown) [Compound 92, (E)-7-(2-(4-(dimethylamino)but-2-enamido)-phenyl)-2-(4-phenoxyphenyl)-4,5,6,7-tetrahydropyrazolo-[1,5-a]pyrimidine-3-carboxamide], 7 nM. For the compound `C=CC(=O)Nc1ccccc1C1CCNc2c(C(N)=O)c(-c3ccc(C(F)(F)F)c(Cl)c3)nn21` (stereo not shown) [Compound 162, 7-(2-Acrylamidophenyl)-2-(3-chloro-4-(trifluoromethyl)phenyl)-4,5,6,7-tetrahydropyrazolo[1,5-a]pyrimidine-3-carboxamide], the IC50 was 3.2 nM. Compared with the last compound, the IC50 is about 2.2-fold lower.
